This note sets out measurements from patent US8071654B2, “Inhibitors of thromboxane formation and action” (priority 2000, dated 2011).

For this test, the target named is T1, platelet TP receptor (Homo sapiens, UniProt P21731).
T1 construct: endogenous in cells; host or cells: washed human platelets
T1 sequence (P21731 1-343): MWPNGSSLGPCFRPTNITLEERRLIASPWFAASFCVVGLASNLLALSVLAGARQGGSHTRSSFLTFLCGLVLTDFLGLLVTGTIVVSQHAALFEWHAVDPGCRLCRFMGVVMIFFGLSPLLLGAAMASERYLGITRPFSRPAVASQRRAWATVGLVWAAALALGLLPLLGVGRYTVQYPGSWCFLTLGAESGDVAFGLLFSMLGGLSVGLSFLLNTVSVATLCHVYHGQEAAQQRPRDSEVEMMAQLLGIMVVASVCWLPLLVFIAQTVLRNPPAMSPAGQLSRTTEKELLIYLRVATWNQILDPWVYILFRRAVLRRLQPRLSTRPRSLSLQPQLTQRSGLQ
Briefly: binding of 125I-BOP to platelets. The protocol: Washed platelets were prepared as described above, except that the platelet suspension was made up at a concentration of 10×10^6 cells/0.5 ml. The binding assay involved the addition of radioligand (30,000 cpm ^125I-BOP) to all tubes in triplicate, and either various doses of unlabeled I-BOP (10^−9-10^−7 M), PBT-3 (10^−9-10^−7 M) or U46619 (10^−9-10^−7 M) in 1 μl ethanol. Additional tubes containing excess unlabeled I-BOP were included to assess the extent of non-specific binding.

One may read the IC50 as the midpoint of a concentration-inhibition curve. Regarding `CCCCC/C=C\CC1CC1[C@@H](O)/C=C\C/C=C\CCCC(=O)OC` (stereo partly drawn) [PBT-3, 10(S)-hydroxy-11,12-cyclopropyl-eicosa-5Z,8Z,14Z-trienoic acid methyl ester], the “fold less active than I-BOP in competing with 125I-BOP binding” value was “about 16 fold”. For the setting “10×10^6 cells/0.5 ml, read-out: IC50 for competition with 125I-BOP binding to platelets”, the IC50 was 8.1 nM.
